These results are taken from patent US11123359B2, “Methods and materials for treating hematological malignancies” (Mayo Foundation for Medical Education and Research, priority 2013, dated 2021).

[nps] = N3'-P5' thiophosphoramidate linkage (3'-amino-3'-deoxy nucleosides); {Palm} = O-[2-hydroxy-3-(hexadecanoylamino)propyl] group (palmitoyl lipid)

For series [1], the system named is patients with high or intermediate-2 risk myelofibrosis. The series can be described thus: Investigator-sponsored single-center clinical study (NCT01731951): responses by International Working Group criteria. In kind it is in vivo, human. The protocol: (§1) In an investigator-sponsored single-center study (ClinicalTrials.gov, Identifier: NCT01731951), imetelstat sodium was administered to patients with high or intermediate-2 risk myelofibrosis. Adverse events were monitored by common terminology criteria (Version 4.03), and responses were monitored by the International Working Group criteria. Eligibility criteria included platelets≥50×10^9/L.
(§2) Imetelstat sodium was administered by a 2-hour intravenous infusion (9.4 mg/kg) every three weeks (cohort A) or weekly×3 followed by every three weeks (cohort B). In addition, patient samples were screened for mutations in ASXL1, SRSF2, SF3B1, and U2AF1 by DNA sequencing. Quantitative PCR was used to measure JAK2V617F burden (assay sensitivity 0.01%). Laboratory correlative studies included analyses of granulocyte telomere length, mononuclear cell telomerase activity, and the presence of human telomerase reverse transcriptase (hTERT) isoforms.
(§3) Thirty-three patients were accrued. The first 18 patients who were enrolled and followed for a minimum of three months or discontinued were assessed herein: eleven for cohort A, and seven for cohort B; 44% primary myelofibrosis, 33% post-PV myelofibrosis and 22% post-ET myelofibrosis. The median age was 68 years, and the baseline risk was high in 56% of the patients and intermediate-2 in 44% of the patients. Seven patients were transfusion-dependent. Median spleen size was 13 cm, and eleven patients had constitutional symptoms. Karyotype was abnormal in seven patients, and 89% were JAK2-mutated. Fifteen patients (83%) were previously treated, including seven with a JAK inhibitor and three with pomalidomide.

Series [2] has the same test system. The series can be described thus: Clinical study (NCT01731951): adverse events by common terminology criteria (Version 4.03). The format is in vivo, human. The protocol:
as §1, §2, §3

Series [3] has as its system mononuclear cell telomerase activity. The series can be described thus: Laboratory correlative study: mononuclear cell telomerase activity. The format is in vivo, human. The following applies: treated myelofibrosis patients. The protocol:
as §2

In series [4] the test system is granulocyte telomere length. The series can be described thus: Laboratory correlative study: granulocyte telomere length. The format is in vivo, human. The following applies: treated myelofibrosis patients. The protocol:
as §2

In series [5] the test system is human telomerase reverse transcriptase (hTERT) isoforms. The series can be described thus: Laboratory correlative study: human telomerase reverse transcriptase (hTERT) isoforms. The format is in vivo. The following applies: treated myelofibrosis patients. The protocol: as §2
[6] abbreviates: first 18 patients, 9.4 mg/kg iv.
The mark [7] stands for this setting: cohort A (9.4 mg/kg every three weeks).
[8] abbreviates: cohort B (9.4 mg/kg weekly x3 followed by every three weeks).

On to “imetelstat: telomerase inhibitor; synthetic lipid-conjugated, 13-mer oligonucleotide N3′ P5′-thio-phosphoramidate (DNA TAGGGTTAGACAA; listed as DNA, chemistry not fully specified)”, for which the “likelihood of complete or partial remission” value in series [1] (ASXL1-mutated cases among the 33 study patients) worked out at 0%; in series [1] (ASXL1-unmutated cases among the 33 study patients), 36%.

For “5′-[O-[2-hydroxy-3-[(1-oxohexadecyl)amino]propyl] phosphorothioate]-d(3′-amino-3′-deoxy-P-thio)(T-A-G-G-G-T-T-A-G-A-C-A-A) (SEQ ID NO:1) sodium salt (13) (TAGGGTTAGACAA; all [nps], 5' {Palm}*, sugars by position and methylation of C not given here; 3'-amino-3'-deoxy nucleosides, sodium salt) [imetelstat sodium, sodium salt of imetelstat, a synthetic lipid-conjugated, 13-mer oligonucleotide N3′ P5′-thio-phosphoramidate]”, in series [1] (CR patients, U2AF1Q157P and 10% JAK2V617F, SF3B1K666E and 50% JAK2V617F), the complete molecular responses result is “two”. Moreover, in series [1] (a third CR patient), the “reduction in U2AF1 469_insAGTATG mutation” value is over 50%. The “patients with leukocytosis who normalized their count or had a >50% reduction” value in series [1] (among thirteen patients with leukocytosis) is 77%. Besides, in series [1] (first 18 patients), the “CR patients transfusion-dependent at baseline who became transfusion-independent” value was “Two” and the “complete or partial resolution of leukoerythroblastosis” value is listed as 61%. The substance also came in with an overall response rate in series [1] (first 18 patients, 9.4 mg/kg 2-hour intravenous infusion, cohorts A and B) of 44%. Also, in series [1] (setting [6]), the “CR patients with reversal of bone marrow fibrosis and recovery of normal megakaryocyte morphology” value came out at 22%; the “partial response (PR), number of patients” value came out at 1 patients; the “patients who met the bone marrow and peripheral blood morphologic criteria for complete response (CR) or partial response (PR)” value was 28%. Also, in series [1] (first 18 patients, pending validation of response duration and resolution of drug-induced grade-1 thrombocytopenia), the “patients with clinical improvement” value is given as “three”. The “patients achieving CR” value in series [1] (six patients with a spliceosome mutated genotype) is on record as 50%. Besides, the “patients achieving CR” value in series [1] (twelve patients with an unmutated spliceosome genotype) was found to be 8%. In series [2] (setting [7]), the grade-3 anemia was determined as 9%, the grade-3 thrombocytopenia came out at 27% and the “grade-4 treatment-related adverse events” value is “no grade-4 treatment-related adverse events”. For the same substance, in series [2] (setting [8]), the grade-3 anemia entry was “one”, the grade-3 neutropenia result was “one”, the grade-3 thrombocytopenia result is “one” and the grade-4 thrombocytopenia was 29%. In series [2] (first 18 patients), the “dose reduction necessary because of grade 3 or 4 myelosuppression” value was 11%. Besides, in series [2] (median follow-up of 3.2 months, first 18 patients), the “patients remaining on treatment” value is reported as 89%. Further, the grade-3/4 myelosuppression in series [2] (patients with an unmutated spliceosome genotype) stood at 25%. The same substance yielded a grade-3/4 myelosuppression in series [2] (spliceosome-mutated patients) of 67%. In addition, the “effect on telomerase activity” value in series [3] is “suppression of telomerase activity”. In addition, the “effect on telomere length” value in series [4] is given as “shortening of telomere length”. The “effect on hTERT isoform pattern” value in series [5] was “alteration of the hTERT isoform pattern”.
